Data on 17 compounds can be found in patent US9156830B2, “Heterocyclic compounds” (SHIONOGI & CO., LTD., priority 2011, dated 2015).

For assay [1], the target named is T1, Human TRPV1 (Homo sapiens (Human), UniProt Q8NER1). As to the kind of experiment: Capsaicin-Based Assay (Protocol 2), TRPV1/CHO cells. Conditions: capsaicin 100 nM final. Type of assay: cell-based. On the procedure:
The TRPV1/CHO cell line was generated as described below. […] Subsequently, the cells were loaded by incubation in 0.1 mL of wash buffer containing Fluo-4 at 3 μM final concentration. After 1 hour, the cells were washed twice with 0.2 mL wash buffer and resuspended in 0.1 mL wash buffer. The plates were then transferred to a Fluorescence Imaging Plate Reader (Molecular Devices). Fluorescence intensity was monitored for 15 seconds to establish a baseline. […] The final concentration of the compound was adjusted to range from 100 μM to 1.5625 μM. […] Data were collected over the entire time course and analyzed using Excel and the curve-fitting formula GraphPad Prism.

Assay [2] deals with T1, Human TRPV1. The experiment in a line: pH-Based Assay (Protocol 2), Ca2+ response in TRPV1/CHO cells. Type of assay: cell-based. Conditions: pH 5.0-5.1 (H2SO4). On the procedure: The TRPV1/CHO cell line was generated as described below. The following assay was conducted to determine the concentration of sulfuric acid that would give rise to a pH that induces a […] response optimal to test compounds for their effect on TRPV1. […] For one half of a 96-well plate one agonist solution was used, for the other half the other agonist solution. The agonist solutions were obtained by diluting sulfuric acid (H2SO4, 1 M) with measuring buffer. The concentrations for the two agonist solutions were determined as described above in Section 2 of Protocol 2. The sulfuric acid concentrations between the two agonist solutions differed by 0.5 mM. […] The thereby-obtained solutions were further diluted in measuring buffer (1:100) as 10× stock serial dilutions with a DMSO concentration of 1%. 10 μL of a 10× stock was added into each well at step 3.3.(4) of Protocol 2. Thus, the final concentrations of antagonists ranged from 1000-0.977 nM containing 0.1% DMSO (FIG. 3B). […] (3) The cells were washed twice with 150 μL of measuring buffer (mentioned in 2.2.(3) of Protocol 2, no probenecid). The wells were subsequently refilled with 70 μL of measuring buffer. (4) Either 10 μL of measuring buffer or 10 μL of 10× stock serial dilution of test compound (described in 3.2. above) were applied to each well. Usually, only one test compound was tested per 96-well plate. The number of replicates per 96-well plate for a particular antagonist at a particular concentration was 7×2 since two different sulfuric acid concentrations were used per 96-well plate (N=7×2)(FIG. 3). Step (5) was the same as 2.2.(4) above. (6) Fura-2 fluorescent intensity was monitored as described in 2.2.(5) above. […] Steps (7) and (8) were as described in 2.2.(6) and 2.2.(7) above, respectively. […] FIG. 3) were measured one by one using a portable pH meter.

[3] abbreviates: Fluo-4, read-out: TRPV1 IC50 Potency Capsaicin-Based Assay IC50.
The mark [4] stands for this setting: Fura-2, read-out: TRPV1 IC50 Potency pH-Based Assay IC50.
[5] abbreviates: Fluo-4, read-out: IC50 value by the Capsaicin-Based Assay.
Where [6] appears, read: Fura-2, read-out: IC50 value by the pH-Based Assay.

T1 sequence (Q8NER1 whole entry): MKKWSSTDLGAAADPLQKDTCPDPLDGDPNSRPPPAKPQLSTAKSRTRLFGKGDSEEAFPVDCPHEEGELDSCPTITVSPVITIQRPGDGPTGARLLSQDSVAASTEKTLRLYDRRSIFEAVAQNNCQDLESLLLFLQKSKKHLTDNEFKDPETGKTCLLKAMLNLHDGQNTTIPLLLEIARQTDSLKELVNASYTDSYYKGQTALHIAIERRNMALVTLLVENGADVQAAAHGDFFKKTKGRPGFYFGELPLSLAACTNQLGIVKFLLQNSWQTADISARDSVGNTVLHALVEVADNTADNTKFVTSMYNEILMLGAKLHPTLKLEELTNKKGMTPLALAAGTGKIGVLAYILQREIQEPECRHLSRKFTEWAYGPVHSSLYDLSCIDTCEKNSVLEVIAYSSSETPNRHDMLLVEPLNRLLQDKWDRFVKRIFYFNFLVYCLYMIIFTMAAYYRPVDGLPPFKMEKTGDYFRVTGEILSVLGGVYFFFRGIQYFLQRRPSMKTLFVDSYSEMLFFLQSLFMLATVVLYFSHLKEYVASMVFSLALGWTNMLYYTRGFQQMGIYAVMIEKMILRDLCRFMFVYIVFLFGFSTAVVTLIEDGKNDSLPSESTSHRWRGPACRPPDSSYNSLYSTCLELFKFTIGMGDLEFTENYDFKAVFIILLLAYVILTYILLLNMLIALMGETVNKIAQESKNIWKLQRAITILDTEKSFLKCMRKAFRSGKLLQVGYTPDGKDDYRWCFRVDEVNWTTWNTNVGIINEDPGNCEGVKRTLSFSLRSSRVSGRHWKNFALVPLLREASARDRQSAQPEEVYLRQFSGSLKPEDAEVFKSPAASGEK

Regarding `Cc1cc(NC(=O)N2CC=C(c3ncc(Cc4ncco4)cc3Cl)CC2)ccc1C(F)(F)F` [Compound I-80, 4-(3-chloro-5-(oxazol-2-ylmethyl)pyridin-2-yl)-N-(3-methyl-4-(trifluoromethyl)phenyl)-5,6-dihydropyridine-1(2H)-carboxamide], in assay [1] (setting [3]), the IC50 came out at 223 nM.
For the compound `O=C(Nc1ccc(C(F)(F)F)c(Cl)c1)N1CC=C(c2ncc(-c3nnc(CCO)o3)cc2Cl)CC1` [Compound I-50, N-(3-chloro-4-(trifluoromethyl)phenyl)-4-(3-chloro-5-(5-(2-hydroxyethyl)-1,3,4-oxadiazol-2-yl)pyridin-2-yl)-5,6-dihydropyridine-1(2H)-carboxamide], the IC50 in assay [2] (setting [4]) came to 60.8 nM.
As to `O=C(C#Cc1ccc(-c2nnc(CO)o2)cc1Cl)Nc1ccc(C(F)(F)F)c(Cl)c1` [Compound I-81, 3-(2-chloro-4-(5-(hydroxymethyl)-1,3,4-oxadiazol-2-yl)phenyl)-N-(3-chloro-4-(trifluoromethyl)phenyl)propiolamide], the IC50 in assay [2] (setting [4]) came out at 12.8 nM.
For the compound `O=C(Nc1ccc(C(F)(F)F)c(Cl)c1)C1=CCN(c2ncc(-c3nnc(CO)o3)cc2Cl)CC1` [Compound I-67, N-(3-chloro-4-(thloro-5-(5-(hydroxymethyl)-1,3,4-oxadiazol-2-yl)pyridin-2-yl)-1,2,3,6-terifluoromethyl)phenyl)-1-(3-ctrahydropyridine-4-carboxamide], the IC50 in assay [1] (setting [5]) and in assay [2] (setting [6]) was not above 100 nM throughout.
Turning to `O=C(Nc1ccc(C(F)(F)F)c(Cl)c1)N1CCC(F)(c2ncc(-c3cc(CO)on3)cc2Cl)CC1` [Compound I-52, N-(3-chloro-4-(trifluoromethyl)phenyl)-4-(3-chloro-5-(5-(hydroxymethyl)isoxazol-3-yl)pyridin-2-yl)-4-fluoropiperidine-1-carboxamide], the IC50 in assay [1] (setting [5]) and in assay [2] (setting [6]) was not above 100 nM in each case.
For `O=C(NCCNc1ncc(-c2nnc(CO)o2)cc1Cl)Nc1ccc(C(F)(F)F)c(Cl)c1` [Compound I-60, 1-(3-chloro-4-(trifluoromethyl)phenyl)-3-(2-(3-chloro-5-(5-(hydroxymethyl)-1,3,4-oxadiazol-2-yl)pyridin-2-ylamino)ethyl) urea], in assay [1] (setting [3]), the IC50 came to 357 nM.
With `O=C(Nc1ccc(C(F)(F)F)cn1)N1CCC(F)(c2ncc(-c3cc(CO)on3)cc2Cl)CC1` [Compound I-53, 4-(3-chloro-5-(5-(hydroxymethyl)isoxazol-3-yl)pyridin-2-yl)-4-fluoro-N-(5-(trifluoromethyl)pyridin-2-yl)piperidine-1-carboxamide], the IC50 in assay [1] (setting [5]) and in assay [2] (setting [6]) was not above 100 nM in each case.
On to `Cc1cc(NC(=O)N2CC=C(c3ccc(-c4nnc(CO)o4)cc3Cl)CC2)ccc1C(F)(F)F` [Compound I-76, 4-(2-chloro-4-(5-(hydroxymethyl)-1,3,4-oxadiazol-2-yl)phenyl)-N-(3-methyl-4-(trifluoromethyl)phenyl)-5,6-dihydropyridine-1(2H)-carboxamide], for which the IC50 in assay [1] (setting [5]) is not above 100 nM; in assay [2] (setting [4]), 2.1 nM.
Turning to `O=C(Nc1ccc(C(F)(F)F)c(Cl)c1)N1CC=C(c2ncc(N3C[C@@H](O)[C@@H](O)C3=O)cc2Cl)CC1` [Compound I-71, N-(3-chloro-4-(trifluoromethyl)phenyl)-4-(3-chloro-5-((3R,4R)-3,4-dihydroxy-2-oxopyrrolidin-1-yl)pyridin-2-yl)-5,6-dihydropyridine-1(2H)-carboxamide], in assay [1] (setting [3]), the IC50 came out at 322 nM.
As to `Cc1cc(-c2nnc(CO)o2)cnc1C1=CCN(C(=O)Nc2ccc(C(F)(F)F)c(Cl)c2)CC1` [Compound I-43, N-(3-chloro-4-(trifluoromethyl)phenyl)-4-(5-(5-(hydroxymethyl)-1,3,4-oxadiazol-2-yl)-3-methylpyridin-2-yl)-5,6-dihydropyridine-1(2H)-carboxamide], the IC50 in assay [1] (setting [5]) and in assay [2] (setting [6]) was not above 100 nM throughout.
As to `Cc1cc(-c2ccc(CO)o2)cnc1C1(F)CCN(C(=O)Nc2ccc(C(F)(F)F)c(Cl)c2)CC1` [Compound I-39, N-(3-chloro-4-(trifluoromethyl)phenyl)-4-fluoro-4-(5-(5-(hydroxymethyl)furan-2-yl)-3-methylpyridin-2-yl)piperidine-1-carboxamide], the IC50 in assay [1] (setting [3]) is 342 nM.
`Cc1cc(NC(=O)N2CC=C(c3ncc(-c4nnc(CO)o4)cc3C)CC2)ccc1C(F)(F)F` [Compound I-44, 4-(5-(5-(hydroxymethyl)-1,3,4-oxadiazol-2-yl)-3-methylpyridin-2-yl)-N-(3-methyl-4-(trifluoromethyl)phenyl)-5,6-dihydropyridine-1(2H)-carboxamide]: the half-inhibitory concentration (IC50) in assay [1] (setting [5]) was not above 100 nM; in assay [2] (setting [4]), 1 nM.
Consider `O=C(Nc1ccc(C(F)(F)F)c(Cl)c1)N1CC=C(c2ccc(-c3nnc(CO)o3)cc2Cl)CC1` [Compound I-75, 4-(2-chloro-4-(5-(hydroxymethyl)-1,3,4-oxadiazol-2-yl)phenyl)-N-(3-chloro-4-(trifluoromethyl)phenyl)-5,6-dihydropyridine-1(2H)-carboxamide], for which the IC50 in assay [1] (setting [5]) and in assay [2] (setting [6]) was not above 100 nM throughout.
As for `O=C(Nc1ccc(C(F)(F)F)cn1)N1CCC(F)(c2ncc(-c3nc(CO)no3)cc2Cl)CC1` [Compound I-57, 4-(3-chloro-5-(3-(hydroxymethyl)-1,2,4-oxadiazol-5-yl)pyridin-2-yl)-4-fluoro-N-(5-(trifluoromethyl)pyridin-2-yl)piperidine-1-carboxamide], in assay [1] (setting [3]), the IC50 was found to be 16.6 nM.
For `O=C(Nc1ccc(C(F)(F)F)c(Cl)c1)N1CC=C(c2ncc(Cc3nnc(CO)o3)cc2Cl)CC1` [Compound I-77, N-(3-chloro-4-(trifluoromethyl)phenyl)-4-(3-chloro-5-((5-(hydroxymethyl)-1,3,4-oxadiazol-2-yl)methyl)pyridin-2-yl)-5,6-dihydropyridine-1(2H)-carboxamide], the IC50 in assay [1] (setting [3]) is 38.8 nM.
As for `Cc1nnc(-c2cnc(C3=CCN(C(=O)Nc4ccc(C(C)(C)C)cc4)CC3)c(Cl)c2)o1` [Compound I-7], the IC50 in assay [2] (setting [4]) came to 0.5 nM.
For `Cc1cc(NC(=O)N2CCC(F)(c3ncc(-c4cc(CO)on4)cc3Cl)CC2)ccc1C(F)(F)F` [Compound I-54, 4-(3-chloro-5-(5-(hydroxymethyl)isoxazol-3-yl)pyridin-2-yl)-4-fluoro-N-(3-methyl-4-(trifluoromethyl)phenyl)piperidine-1-carboxamide], the IC50 in assay [1] (setting [5]) and in assay [2] (setting [6]) was not above 100 nM throughout.
